Data from paper PMC12700550, “DLL4^+ neutrophils promote Notch1-mediated endothelial PANoptosis to exacerbate acute lung injury in sepsis” (The Journal of Clinical Investigation, 2025).

What was measured:
c-caspase-3 = assay: c/t caspase-3 (apoptosis) in PVECs cocultured with neutrophils, Western blot; format: cell-based, mouse; settings: DAPT
Experimental: (§1) Wild-type PVECs (5 × 10^5) were cocultured with sorted DLL4^+ neutrophils (5 × 10^5) or DLL4^– neutrophils (5 × 10^5) and then treated with different dosages of peptides or 10 μM DAPT (Thermo Fisher Scientific), 10 μM NDI (GenScript), or 10 μM NDI scramble (GenScript). Notch1-knockdown PVECs (5 × 10^5) were cocultured with sorted DLL4^+ neutrophils (5 × 10^5). After 16 hours, neutrophils were washed away by PBS, and PVECs were collected for further experiments. Cell viability was evaluated by propidium iodide staining using the FITC Annexin V Apoptosis Detection Kit I (catalog 556547, BD Pharmingen). Cell death was quantified as the percentage of propidium iodide–positive cells by flow cytometry.
(§2) PVECs and lung tissue were collected in previous steps. Whole-cell proteins were extracted, and the protein concentration was measured using an ABC protein assay kit (catalog 5000002, Bio-Rad). Proteins were separated using NuPAGE 4%–12% Bis-Tris gels (Invitrogen), transferred to PVDF membranes, and immunoblotted with the antibodies indicated in the figure legends according to the manufacturer’s recommendations. The ZBP1 antibody (catalog PA5-20455; 1:1,000) used in this study was obtained from Thermo Fisher Scientific, and the c-GSDMD (catalog 10137S; 1:250), GSDMD (catalog 39754S; 1:1000), c-caspase-3 (catalog 9661L; 1:250), caspase-3 (catalog 9662S; 1:1,000), p-MLKL (catalog 37333S; 1:250), MLKL (catalog 37705S; 1:1,000), N1ICD (c-Notch1) (catalog 4147S; 1:250), and Notch1 (catalog 3608S; 1:1,000) antibodies were obtained from Cell Signaling Technology. GAPDH (catalog 60004-1-Ig; 1:10,000) and β-actin (catalog A5441, Sigma-Aldrich; 1:5,000) were obtained from ProteinTech. After the blots were incubated with primary antibodies, the membranes were washed 3 times, and the blots were subsequently incubated with the corresponding fluorescent secondary antibody (LI-COR). Bands were detected using an Odyssey FC Dual-Mode Imaging system 2800 (LI-COR).

c-GSDMD = assay: c/t GSDMD (pyroptosis) in PVECs cocultured with neutrophils, Western blot; format: cell-based, mouse; settings: DAPT
Experimental: as §1, §2

ZBP1 [1] = assay: ZBP1 mRNA in PVECs cocultured with neutrophils, RT-PCR (DAPT, NDI, peptides 1–5); format: cell-based, mouse; settings: DAPT, DLL4^+ neutrophil–PVEC coculture
Experimental: Immortalized mouse (Mus musculus) lung endothelial cells with polyoma middle T (PVECs) were purchased from Applied Biological Materials Inc. (ABM) and grown in 1:1 PriGrow VI Medium and PriGrow IV Medium (ABM).
as §1
mRNA was extracted from lung tissues with TRIzol reagent (Invitrogen, Thermo Fisher Scientific). An equal amount ([…]) of mRNA was reverse-transcribed into cDNA using the reverse transcriptase enzyme (Invitrogen, Thermo Fisher Scientific). qPCR was performed from the diluted cDNA templates with forward and reverse primers (Supplemental Table 4) and SYBR Green PCR Master Mix (Applied Biosystems, Thermo Fisher Scientific) using an Applied Biosystems 7300 real-time PCR machine. Mouse β-actin served as an internal control gene for normalization. Relative expression of mRNA was represented as fold change in comparison with the sham group.

ZBP1 [2] = assay: ZBP1 protein in PVECs cocultured with neutrophils, Western blot; format: cell-based, mouse; settings: DAPT
Experimental: as §1, §2

p-MLKL = assay: p-MLKL/MLKL (necroptosis) in PVECs cocultured with neutrophils, Western blot; format: cell-based, mouse; settings: DAPT
Experimental: as §1, §2

[3] = biological target: Recombinant murine (rm) Notch1 (murine) (UniProt Q01705); assay: SPR; as a1, same HS-NTA sensor with rmNotch1; rmDLL4 at all concentrations preincubated with 1 ug/mL NDI for 30 minutes at room temperature before injection; 40 uL/min, 20°C; global 1:1 fit
[4] = biological target: Recombinant murine (rm) Notch1 (murine) (UniProt Q01705); assay: SPR; OpenSPR (Nicoya), HS-NTA sensor activated with NiCl2; rmNotch1 (25 ug/mL) immobilised on channel 2; rmDLL4 as analyte at 5, 12.5, 50 and 100 nM, 40 uL/min; PBS, 0.005% P20, pH 7.4; channel 1 subtracted; global 1:1 fit
rmNotch1 = biological target: T1, rmNotch1 (Mus musculus, UniProt Q01705); assay: BIAcore assay (surface plasmon resonance), rmDLL4 to immobilized rmNotch1; format: binding, murine; settings: OpenSPR, HS-NTA sensor, rmDLL4 5–100 nM, PBS 0.005% P20 pH 7.4, 20°C, 1:1 fit; without NDI; read-out: KD between DLL4 and Notch1
T1 construct: purchased R&D Systems 5267-TK (rmNotch1); 1389-D4-050/CF (rmDLL4)
Experimental: To determine rmDLL4’s direct interaction with rmNotch1, surface plasmon resonance (OpenSPR, Nicoya) was performed. High-sensitivity nitrilotriacetic acid (HS-NTA) sensors were used. Binding reactions were performed in running buffer (PBS, 0.005% P20, pH 7.4). The HS-NTA sensor was first cleaned by injection with 10 mM HCl (150 μL) followed by injection of 150 μL of 350 mM EDTA. […] For the effect of NDI efficacy on rmDLL4 binding to rmNotch1, the same HS-NTA sensor was used. rmDLL4 at all the concentrations used for binding with rmNotch1 was preincubated with 1 μg/mL NDI for 30 minutes at room temperature, and then the complexes were injected to channels 1 and 2. Binding reactions were carried out with the same running buffer at a flow rate of 40 μL/min at 20°C. Channel 1 was used as a control to evaluate nonspecific binding. The real-time interaction data were analyzed by Trace Drawer (Nicoya). The signals from channel 1 were subtracted from channel 2 coated with the ligand for all samples. Data were globally fitted for 1:1 binding (one-to-one model).

[5] = DLL4^+ neutrophil–stimulated PVECs
[6] = DLL4^– neutrophil–treated PVECs

Sequence of Recombinant murine (rm) Notch1 (murine) (Q01705 19-2531): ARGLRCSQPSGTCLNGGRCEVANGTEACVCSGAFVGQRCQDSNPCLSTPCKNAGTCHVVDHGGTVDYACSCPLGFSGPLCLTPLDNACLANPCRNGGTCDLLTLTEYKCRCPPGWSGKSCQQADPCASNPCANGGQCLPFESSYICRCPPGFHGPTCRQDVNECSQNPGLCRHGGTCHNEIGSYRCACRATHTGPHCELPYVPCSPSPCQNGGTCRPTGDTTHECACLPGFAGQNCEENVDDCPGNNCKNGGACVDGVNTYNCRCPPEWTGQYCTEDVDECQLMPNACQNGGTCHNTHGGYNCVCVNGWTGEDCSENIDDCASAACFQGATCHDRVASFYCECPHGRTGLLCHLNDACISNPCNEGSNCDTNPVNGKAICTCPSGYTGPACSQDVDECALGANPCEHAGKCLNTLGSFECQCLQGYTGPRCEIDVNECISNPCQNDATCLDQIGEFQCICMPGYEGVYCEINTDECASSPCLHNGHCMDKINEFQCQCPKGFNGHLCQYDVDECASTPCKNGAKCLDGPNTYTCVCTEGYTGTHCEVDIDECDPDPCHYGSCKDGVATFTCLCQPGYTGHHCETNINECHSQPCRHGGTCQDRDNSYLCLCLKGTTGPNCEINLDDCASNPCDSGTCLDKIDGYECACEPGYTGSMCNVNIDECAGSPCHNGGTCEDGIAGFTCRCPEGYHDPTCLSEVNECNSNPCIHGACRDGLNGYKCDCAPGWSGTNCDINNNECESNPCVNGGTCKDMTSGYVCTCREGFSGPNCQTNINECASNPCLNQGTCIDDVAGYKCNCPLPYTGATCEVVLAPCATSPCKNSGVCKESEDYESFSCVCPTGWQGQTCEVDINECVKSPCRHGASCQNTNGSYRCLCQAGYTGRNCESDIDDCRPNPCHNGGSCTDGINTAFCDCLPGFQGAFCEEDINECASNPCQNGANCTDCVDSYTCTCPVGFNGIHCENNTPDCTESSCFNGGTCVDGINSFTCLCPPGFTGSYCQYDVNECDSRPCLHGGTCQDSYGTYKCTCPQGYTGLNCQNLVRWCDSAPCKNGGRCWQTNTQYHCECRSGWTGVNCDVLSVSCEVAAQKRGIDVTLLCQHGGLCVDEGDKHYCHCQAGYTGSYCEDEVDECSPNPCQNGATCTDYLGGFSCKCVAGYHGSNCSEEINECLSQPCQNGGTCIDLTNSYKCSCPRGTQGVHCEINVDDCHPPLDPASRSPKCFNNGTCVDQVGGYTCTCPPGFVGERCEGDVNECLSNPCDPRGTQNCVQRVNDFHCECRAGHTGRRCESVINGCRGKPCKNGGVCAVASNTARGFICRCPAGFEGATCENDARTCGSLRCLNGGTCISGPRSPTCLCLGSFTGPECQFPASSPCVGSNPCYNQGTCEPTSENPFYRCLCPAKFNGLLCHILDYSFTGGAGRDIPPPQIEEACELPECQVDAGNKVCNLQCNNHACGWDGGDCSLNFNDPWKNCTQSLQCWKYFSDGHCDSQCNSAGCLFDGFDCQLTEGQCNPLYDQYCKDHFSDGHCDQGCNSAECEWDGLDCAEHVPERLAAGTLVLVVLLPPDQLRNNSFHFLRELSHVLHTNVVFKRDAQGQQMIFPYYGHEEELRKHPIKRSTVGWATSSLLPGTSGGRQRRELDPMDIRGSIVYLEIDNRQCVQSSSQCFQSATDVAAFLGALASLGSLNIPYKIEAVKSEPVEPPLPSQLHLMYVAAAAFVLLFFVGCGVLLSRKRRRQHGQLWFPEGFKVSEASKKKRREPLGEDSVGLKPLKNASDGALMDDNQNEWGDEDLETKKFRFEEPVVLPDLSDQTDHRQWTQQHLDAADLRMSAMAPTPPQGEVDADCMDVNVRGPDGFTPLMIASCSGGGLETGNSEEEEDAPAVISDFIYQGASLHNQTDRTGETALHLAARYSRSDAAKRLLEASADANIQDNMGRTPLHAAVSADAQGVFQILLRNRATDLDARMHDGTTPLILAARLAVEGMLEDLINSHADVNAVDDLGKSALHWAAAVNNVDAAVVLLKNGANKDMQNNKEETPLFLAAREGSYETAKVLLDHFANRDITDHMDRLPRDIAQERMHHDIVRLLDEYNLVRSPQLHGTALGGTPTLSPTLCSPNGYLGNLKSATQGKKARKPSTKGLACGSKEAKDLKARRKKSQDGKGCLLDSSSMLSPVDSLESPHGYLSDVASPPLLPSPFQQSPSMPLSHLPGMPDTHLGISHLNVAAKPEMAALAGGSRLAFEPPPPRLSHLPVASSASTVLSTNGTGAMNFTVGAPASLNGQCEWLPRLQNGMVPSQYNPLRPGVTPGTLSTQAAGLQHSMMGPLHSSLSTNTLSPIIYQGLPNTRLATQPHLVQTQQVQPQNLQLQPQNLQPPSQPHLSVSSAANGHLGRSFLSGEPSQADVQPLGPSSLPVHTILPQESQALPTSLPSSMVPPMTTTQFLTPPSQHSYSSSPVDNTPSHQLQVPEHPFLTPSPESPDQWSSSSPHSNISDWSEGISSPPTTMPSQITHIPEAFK
T1 sequence (Q01705 with tags, fused parts or gaps limits assumed, one chain of several): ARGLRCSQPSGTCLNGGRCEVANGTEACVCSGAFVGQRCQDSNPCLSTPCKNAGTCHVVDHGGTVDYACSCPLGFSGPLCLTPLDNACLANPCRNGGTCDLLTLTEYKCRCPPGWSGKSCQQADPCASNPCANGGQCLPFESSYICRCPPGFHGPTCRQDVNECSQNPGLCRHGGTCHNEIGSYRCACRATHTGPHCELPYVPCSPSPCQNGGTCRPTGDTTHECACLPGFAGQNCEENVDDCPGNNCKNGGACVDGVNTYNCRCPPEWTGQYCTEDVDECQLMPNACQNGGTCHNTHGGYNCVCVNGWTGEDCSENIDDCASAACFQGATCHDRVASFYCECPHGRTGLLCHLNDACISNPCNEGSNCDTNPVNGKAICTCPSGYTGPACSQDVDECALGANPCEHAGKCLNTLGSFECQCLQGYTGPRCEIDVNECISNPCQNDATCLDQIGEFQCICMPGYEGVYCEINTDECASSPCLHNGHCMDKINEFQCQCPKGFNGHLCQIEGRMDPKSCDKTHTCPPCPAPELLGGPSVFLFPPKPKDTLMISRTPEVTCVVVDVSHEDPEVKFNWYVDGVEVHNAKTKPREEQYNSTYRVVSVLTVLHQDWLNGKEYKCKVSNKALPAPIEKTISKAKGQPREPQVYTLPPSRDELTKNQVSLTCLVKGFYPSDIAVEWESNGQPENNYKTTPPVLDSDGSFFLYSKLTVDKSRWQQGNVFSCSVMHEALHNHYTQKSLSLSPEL

Q: Which results are given for `C[C@H](NC(=O)Cc1cc(F)cc(F)c1)C(=O)N[C@H](C(=O)OC(C)(C)C)c1ccccc1` [DAPT, N-[N-(3,5-difluorophenacetyl)-L-alanyl]-S-phenylglycine t-butyl ester, reference compound]?
A: effect on c-caspase-3 (c-caspase-3; [5]): significantly reduced the elevated expression; effect on c-caspase-3 (c-caspase-3; [6]): did not significantly reduce; effect on c-GSDMD (c-GSDMD; [5]): significantly reduced the elevated expression; effect on c-GSDMD (c-GSDMD; [6]): did not significantly reduce; effect on ZBP1 mRNA (ZBP1 [1]): reduced it to the baseline levels; effect on ZBP1 (ZBP1 [2]; [5]): significantly reduced the elevated expression; effect on ZBP1 (ZBP1 [2]; [6]): did not significantly reduce; effect on p-MLKL (p-MLKL; [5]): significantly reduced the elevated expression; effect on p-MLKL (p-MLKL; [6]): did not significantly reduce

Q: With “Recombinant murine (rm) DLL4 (from UniProt Q9JI71 27-532) (ligand)” as the molecule, how does the KD with NDI present [3] read?
A: The KD with NDI present was 237 nM.

Q: What about the Kd [4] of the same molecule?
A: Its Kd is 42.6 nM.

B1: DLL4: Recombinant murine DLL4, R&D Systems (protein)
chain: GSGIFQLRLQEFVNQRGMLANGQSCEPGCRTFFRICLKHFQATFSEGPCTFGNVSTPVLGTNSFVVRDKNSGSGRNPLQLPFNFTWPGTFSLNIQAWHTPGDDLRPETSPGNSLISQIIIQGSLAVGKIWRTDEQNDTLTRLSYSYRVICSDNYYGESCSRLCKKRDDHFGHYECQPDGSLSCLPGWTGKYCDQPICLSGCHEQNGYCSKPDECICRPGWQGRLCNECIPHNGCRHGTCSIPWQCACDEGWGGLFCDQDLNYCTHHSPCKNGSTCSNSGPKGYTCTCLPGYTGEHCELGLSKCASNPCRNGGSCKDQENSYHCLCPPGYYGQHCEHSTLTCADSPCFNGGSCRERNQGSSYACECPPNFTGSNCEKKVDRCTSNPCANGGQCQNRGPSRTCRCRPGFTGTHCELHISDCARSPCAHGGTCHDLENGPVCTCPAGFSGRRCEVRITHDACASGPCFNGATCYTGLSPNNFVCNCPYGFVGSRCEFPVGLPPSFPWVA
Q: How did the Kd (rmNotch1) turn out when B1 was run?
A: Its Kd is 42.6 nM.
